From patent US12246022B2, “Compositions and methods for treating, preventing or reversing age associated inflammation and disorders” (BROWN UNIVERSITY, priority 2019, dated 2025)
Read-outs that look alike come from different tables or passages of the source.

What was measured:
Assay type in all cases: cell-based
mouse LINE-1 = experiment: Mouse LINE-1 retrotransposition assay (dual luciferase pYX016 reporter, HeLa cells)
Method: Elvucitabine was obtained by custom synthesis. […] HeLa cervical cancer cells were cultivated at 37° C. in a humidified 5% CO2 incubator in Dulbecco's Modified Eagle's Medium (DMEM)-high glucose, with 4500 mg/L glucose, L-glutamine, sodium pyruvate and sodium bicarbonate (Sigma), supplemented with 10% of heat inactivated fetal bovine serum (Thermo Fisher). Assays were performed as described in Xie et al., 2011^151 with several modifications. The reporter assay was performed in 96 well white Optical bottom plates. 6000 HeLa cells were seeded in each well 24 hours prior transfection and compound treatment. All compounds were resuspended in DMSO. Stock solution concentrations varied from 50 mM to 1.25 mM depending of the solubility of the compound. Serial dilutions (1:3) were prepared in DMSO. Ten different concentrations of each compound were tested in triplicate. Medium containing different concentrations of the compounds were prepared by adding 2 μL of the compound dilution to 1 mL of the culture medium. The final concentration of DMSO in the medium was 0.2%. FuGENE® HD transfection reagent (Promega) was used to transfect the plasmid pYX016 into the cells. The transfection mix was prepared in OpiMEM (Thermo Fisher) using a reagent to DNA ratio of 3.5:1 according to manufacturer's instructions. Culture medium was removed from the cells and discarded. The transfection mix (5 μL) was mixed with the compound containing medium (100 μL/well) and this was added onto the cells of each well. Cells were incubated for 48H at 37° C./5% CO2. Luciferase reporter activity was quantified with the Dual-Luciferase® Reporter Assay System (Promega) according to manufacturer's instructions for multiwell plates with the following modification: Cells were lysed directly on the multiwell plate with 30 μL of the passive lysis buffer (PLB) for 20 min at room temperature, with gentle shaking to ensure complete cell lysis (instead of 20 μL of PLB for 15 min). Firefly and Renilla luciferase signals were measured using a SpectraMax i3x Multi-Mode Microplate Reader. […] Relative L1 activity was calculated as Firefly/Renilla *10,000. […] The experiment was performed twice, independently.

human LINE-1 = experiment: Human LINE-1 retrotransposition assay (dual luciferase pYX017 reporter, HeLa cells, Table 11)
Method: Assays were performed as described in Xie et al., 2011^151 with several modifications. The reporter assay was performed in 96 well white Optical bottom plates. 6000 HeLa cells were seeded in each well 24 hours prior transfection and compound treatment. All compounds were resuspended in DMSO. Stock solution concentrations varied from 50 mM to 1.25 mM depending of the solubility of the compound. Serial dilutions (1:3) were prepared in DMSO. Ten different concentrations of each compound were tested in triplicate. Medium containing different concentrations of the compounds were prepared by adding 2 μL of the compound dilution to 1 mL of the culture medium. The final concentration of DMSO in the medium was 0.2%. FuGENE® HD transfection reagent (Promega) was used to transfect the plasmid pYX016 into the cells. The transfection mix was prepared in OpiMEM (Thermo Fisher) using a reagent to DNA ratio of 3.5:1 according to manufacturer's instructions. Culture medium was removed from the cells and discarded. The transfection mix (5 μL) was mixed with the compound containing medium (100 μL/well) and this was added onto the cells of each well. Cells were incubated for 48H at 37° C./5% CO2. Luciferase reporter activity was quantified with the Dual-Luciferase® Reporter Assay System (Promega) according to manufacturer's instructions for multiwell plates with the following modification: Cells were lysed directly on the multiwell plate with 30 μL of the passive lysis buffer (PLB) for 20 min at room temperature, with gentle shaking to ensure complete cell lysis (instead of 20 μL of PLB for 15 min). Firefly and Renilla luciferase signals were measured using a SpectraMax i3x Multi-Mode Microplate Reader. […] Relative L1 activity was calculated as Firefly/Renilla *10,000. […] The experiment was performed twice, independently. […] Because the human construct yields a lower signal, compounds were incubated with cells for 72 hours instead of 48 hours, and cells were seeded at a density of 2000/well instead of 6000/well. In addition, the transfection reagent to DNA ratio was 2:1 instead of 3.5:1.

HeLa cells = experiment: Cell viability assay (CellTiter-Glo); details: doses up to 2 μM
Method: As described above, the toxicity of RTIs could impair their ability to halt or block the harmful effects of senescent cells and their ability to prevent or reverse age-related inflammation and disorders.
HeLa cells were treated with the different concentrations of the eight RTI compounds for 48 hours. Cell viability was measured with CellTiter-Glo® luminescent cell viability assay (Promega®) and presented as percentage of cell viability versus untreated cells. Staurosporine, known to induce cell death, was used as a control.

Nc1nc(=O)n([C@@H]2C=C[C@H](CO)O2)cc1F [Elvucitabine]
IC50 (mouse LINE-1; pYX016, 48 H post-transfection, read-out: Mouse L1 activity inhibition IC50, Exp. 1): 116 nM
IC50 (mouse LINE-1; pYX016, 48 H post-transfection, read-out: Mouse L1 activity inhibition IC50, Exp. 2): 106 nM
IC50 (mouse LINE-1; pYX016, 48 H, n = 2, read-out: Mouse L1 activity inhibition IC50, Average): 111 nM
IC50 (mouse LINE-1; read-out: mouse L1 inhibition IC50): ~100 nM
IC50 (human LINE-1; pYX017, 72 H post-transfection, read-out: Human L1 activity inhibition IC50, Exp. 1): 94 nM
IC50 (human LINE-1; read-out: human L1 inhibition IC50): ~100 nM
toxicity in the cell viability assay (HeLa cells): without inducing toxicity
